Assay results from patent US20250052751A1, “COMPOSITIONS AND METHODS FOR DIAGNOSING AUTOIMMUNE AQUAPORINOPATHY” (The Regents of the University of California, priority 2023, published 2025).

Columns and labels:
[1] = tested on: WT, RAG1^−/−, TCRa^−/− and JHT recipient mice; experiment: Adoptive transfer of Th17-polarized peptide-specific T cells, clinical and histologic CNS disease; format: in vivo, mouse
Description: FIGS. 5A-5B. Pathogenic AQP4-specific Th17 cells induce sustained CNS autoimmune disease in T cell-deficient mice. (FIG. 5A) Th17-polarized AQP4 p133-149-specific T cells from AQP4−/− mice were transferred into WT, T cell- and B cell-deficient (T cell-/B cell-, RAG1^−/−), T cell-deficient (T cell-, TCRa^−/−) and B cell-deficient (B cell-, JHT) recipient mice then scored for clinical disease. Donor Th17-polarized MOG p35-55-specific T cells were transferred into WT recipient mice as a control. Results are representative of four experiments (n=5 per group). (FIG. 5B) Recipient mice were evaluated for histologic evidence of meningeal and CNS parenchymal inflammation (H&E). Results are representative of two experiments (2-4 mice/group/time-point/experiment).
CNS autoimmune disease induction and analysis. For adoptive induction of CNS disease with primary lymphocytes, mice were immunized s.c. with 100 μg AQP4 or MOG peptides in CFA containing 400 μg M. tuberculosis H37Ra (Difco Laboratories). After 10-12 days, lymph node cells were cultured with 15 μg/ml antigen for 3 days with 20 ng/ml IL-23 and 10 ng/ml IL-6, under Th17 polarizing conditions. 2×10^7 cells were injected i.v. into naïve recipients, which then received 200 ng B. pertussis toxin (Ptx) (List Biological) i.p. on days 0 and 2. Clinical scores: 0=no disease, 1=tail tone loss, 2=impaired righting, 3=severe paraparesis or paraplegia, 4=quadraparesis, and 5=moribund or death.
For induction of CNS disease by I-A^b:AQP4 tet-sorted cells targeted cells, primary lymph node cells from AQP4 or WT mice were restimulated with […] antigen and irradiated splenocytes every 10 days. Percent tetramer binding was monitored by flow cytometry. In preparation for adoptive transfer, cells were washed and cultured with 1:10 T cell-to-irradiated splenocytes under polarizing conditions for 3 days. CD4^+ cells were negatively sorted using magnetic beads (Miltenyi). 5×10^6 were transferred to TCRa^−/− recipients. 200 ng Ptx was given on days 0 and 2.
Histopathology. Brain, spinal cord, optic nerve, kidney and muscle tissue samples were fixed in 10% neutral-buffered formalin, paraffin-embedded, sectioned and stained with H&E. Meningeal and parenchymal inflammatory lesions and areas of demyelination were assessed in a blinded manner as described (39).

CD4^+ T cells = experiment: I-A^b:peptide tetramer binding by flow cytometry after peptide immunization; format: cell-based, mouse
Method: FIGS. 4A-4B. Negative selection of AQP4 p133-149-reactive T cells is bypassed partially in mice deficient in thymic AQP4 expression. (FIG. 4A) AQP4^−/− WT, Foxn1cre-AQP4^fl/fl, Aire^−/−, or Foxn1cre-Fezf2^fl/fl mice were immunized s.c. with peptides indicated. Peptide-specific proliferation of draining lymph node cells was measured by 3H-thymidine incorporation (mean±SEM, representative of five experiments). Comparisons within the five experiments for p133-149 at […]: WT vs. AQP4^−/− (p=0.008), WT vs. Foxn1cre-AQP4^fl/fl (p=0.008). (FIG. 4B) Ten days after peptide immunization, CD4^+ T cells from draining lymph nodes were analyzed for I-A^b: peptide tetramer binding by flow cytometry. Each data point represents the frequency (mean±SEM) of CD4^+ T cells bound to cognate antigen-tetramer in a single mouse. […] For p133-149: WT vs. Aire^−/− (p=0.9), WT vs. Foxn1cre-Fezf2^fl/fl (p=0.3). For p202-218: WT vs. Foxn1cre-AQP4^fl/fl (p=0.3), WT vs. Aire^−/− (p=0.06).
Flow cytometry. For analysis of tetramer binding, AQP4 p133-149, p202-218, IRBP p277-289 and hCLIP p87-101 IA^b tetramers conjugated to PE or APC were provided by the National Institute of Allergy and Infectious Diseases Tetramer Core Facility at Emory University. Lymphocytes were coincubated with 1 mg/ml tetramer conjugated to PE or APC for 2 hours at room temperature, washed and enriched using anti-PE magnetic microbeads (Miltenyi) over a magnetic column. Binding to hCLIP tetramer was used as a negative control. Dead cells were excluded using Live/Dead fixable Aqua Dead Cell Stain Kit (Invitrogen), lineage negative cells were excluded using antibodies to CD11b (M1/70), B220 (RA3-6B2) and CD8 (53-6.7) and positive cells were selected using antibodies to CD3 (145-2C11) and CD4 (RM4.5). 123count eBeads (Invitrogen) were used with unenriched and enriched samples for quantification of the frequency of tet^+CD4^+ T cells (total number of tet^+CD4+ T cells divided by total CD4^+ T cells per mouse). For figures showing tetramer staining, flow cytometry of the unenriched cells are shown. For analysis of GFP^+ T cells, mice were perfused with PBS, and the CNS was dissected, minced, digested with collagenase and DNase I (Roche), and isolated over a Ficoll gradient as described previously (39). Live CD4^+ cells were analyzed with a viability stain (Near-IR), and antibodies to CD11b, B220, CD8 and CD4. Apoptosis was analyzed separately using the same antibody staining, followed by Annexin V and 7-AAD staining in Annexin V binding buffer (BioLegend) per manufacturer's instructions. Cells were quantified using 123count eBeads.

Foxn1cre-AQP4^fl/fl mice = experiment: CNS autoimmunity by direct peptide immunization; format: in vivo, mouse
[2] = AQP4^−/− mice compared with the other strains, cognate I-A^b:peptide tetramer
[3] = Foxn1cre-AQP4^fl/fl (thymic AQP4-deficient) mice compared with WT mice
[4] = donor Th17 cells from AQP4^−/− mice, recipient WT and JHT mice

Sequence | clinical and histologic CNS disease after transfer of peptide-specific Th17 cells ([1]; WT recipient mice) | frequency of CD4^+ tet^+ T cells (CD4^+ T cells; [2]) | frequency of CD4^+ tet^+ T cells (CD4^+ T cells; [3]) | CNS autoimmunity after transfer of tet^+-sorted T cells ([1]; I-A^b:AQP4 p133-149 tet^+-sorted T cells from immunized AQP4^−/− mice) | onset of paralysis after transfer [1, 4] | time from onset to complete recovery [1, 4] | clinical and histologic CNS disease after transfer of peptide-specific Th17 cells ([1]; recipient RAG1^−/− and TCRa^−/− mice) | CNS inflammation (H&E) ([1]; recipient WT and JHT mice, day 21) | CNS autoimmunity by immunization (Foxn1cre-AQP4^fl/fl mice) | frequency of CD4^+ tet^+ T cells (CD4^+ T cells; Foxn1cre-AQP4^fl/fl mice compared with AQP4^−/− mice)
LFAINYTGASMNPARSF [AQP4 p202-218] | capable of inducing paralysis and CNS inflammation in WT mice | elevated in AQP4^−/− mice in comparison to other strains | did not permit significant restoration |  |  |  |  |  |  | 
LYLVTPPSVVGGLGVT [AQP4 p133-149] | capable of inducing paralysis and CNS inflammation in WT mice | significantly elevated in AQP4^−/− mice | significantly elevated in comparison to AQP4 p133-149-specific T cells in WT mice | transferred CNS autoimmunity to WT mice | ~7 days | 4 to 5 days | persistent paralysis and CNS inflammation | no longer evident after recovery | resistant to CNS autoimmunity | significantly lower than in AQP4^−/− mice
